Results from patent US20260116902A1, “NOVEL COMPOUND AS FUNCTIONAL ANTAGONIST FOR S1PR1 AND S1PR4” (NEXTGEN BIOSCIENCE CO., LTD., priority 2024, published 2026).

Biological target: T1, S1PR1 (Homo sapiens, UniProt P21453)
T1 construct: host or cells: CHO-K1 (PathHunter eXpress β-Arrestin GPCR cells)
Experiment: β-arrestin recruitment assay (PathHunter CHO-K1), S1PR1
Format: cell-based
Conditions: agonism
Method: To this end, each of the cell lines in which S1PR1, S1PR2, S1PR3, and S1PR4 are overexpressed (PathHunter® CHO-K1 eXpress β-Arrestin GPCR cells; DiscoverX, Fremont, USA) was seeded in a 384-well plate at 5000 cells/well and cultured using an AssayComplete™ Cell Culture Kit-107 (DiscoverX, Fremont, USA). […] A PathHunter detection reagent cocktail (DiscoverX, Fremont, USA) was added in accordance with the manufacturer's instructions and incubated for 1 hour, followed by measuring a chemiluminescent signal (luminescence reader, 0.1 to 1 second/well).

T1 sequence (P21453 whole entry): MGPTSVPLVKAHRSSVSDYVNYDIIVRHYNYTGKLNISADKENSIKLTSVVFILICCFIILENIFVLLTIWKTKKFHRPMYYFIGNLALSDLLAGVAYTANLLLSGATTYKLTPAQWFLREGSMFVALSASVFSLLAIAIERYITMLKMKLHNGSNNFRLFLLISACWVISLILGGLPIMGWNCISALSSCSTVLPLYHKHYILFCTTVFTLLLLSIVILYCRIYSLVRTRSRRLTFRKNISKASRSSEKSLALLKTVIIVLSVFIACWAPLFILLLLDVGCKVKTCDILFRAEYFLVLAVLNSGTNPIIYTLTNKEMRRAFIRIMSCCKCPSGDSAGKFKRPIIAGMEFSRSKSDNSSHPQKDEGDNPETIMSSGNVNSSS

CCCCCCCCCCCCC/C=C/[C@@H](O)[C@@H](N)COP(=O)(O)O [Compound S1P, sphingosine-1-phosphate]
EC50: 16.3 nM
